Key:
Assay type in all cases: biochemical
[1] = molecular target: T1, MMP-9 (Homo sapiens, UniProt P14780); experiment: Automated MMP Profiling Assay, MMP-9 fluorogenic; conditions: for IC50: 96-well automated, P218
T1 construct: from tissue; host or cells: human polymorphonuclear leukocytes (PMN) from whole blood (New York Blood Center), PMA-stimulated supernatant

[2] = molecular target: T2, MMP-2 (Homo sapiens, UniProt P08253); experiment: Automated MMP Profiling Assay, MMP-2 fluorogenic; conditions: 96-well automated, P218; read-out: MMP-2 Fluorogenic IC50 (profiling)
T2 sequence (P08253 110-660): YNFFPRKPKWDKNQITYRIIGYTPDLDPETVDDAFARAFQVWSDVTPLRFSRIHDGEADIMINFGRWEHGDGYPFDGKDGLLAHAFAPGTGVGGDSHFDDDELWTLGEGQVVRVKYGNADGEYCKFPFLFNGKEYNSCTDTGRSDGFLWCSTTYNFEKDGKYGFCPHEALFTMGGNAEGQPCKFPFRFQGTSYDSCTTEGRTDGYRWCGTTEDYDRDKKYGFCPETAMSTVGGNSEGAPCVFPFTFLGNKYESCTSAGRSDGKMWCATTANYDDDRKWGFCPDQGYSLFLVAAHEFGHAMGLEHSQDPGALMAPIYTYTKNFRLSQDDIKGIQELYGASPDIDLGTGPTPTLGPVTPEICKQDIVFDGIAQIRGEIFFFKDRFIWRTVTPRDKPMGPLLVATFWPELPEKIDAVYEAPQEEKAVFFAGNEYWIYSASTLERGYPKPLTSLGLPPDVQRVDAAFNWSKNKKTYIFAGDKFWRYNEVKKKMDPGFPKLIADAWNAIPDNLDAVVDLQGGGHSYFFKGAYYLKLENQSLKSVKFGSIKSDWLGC

[3] = molecular target: T3, MMP-3 (Homo sapiens, UniProt P08254); experiment: Automated MMP Profiling Assay, MMP-3 fluorogenic; conditions: for IC50: 96-well automated, P218
T3 construct: Truncated Prostromelysin-257 was expressed in a soluble form in E.coli; made in house; host or cells: E. coli
Excerpt: This assay with each invention compound was run with the three enzymes MMP-3, MMP-9 and MMP-2 in parallel as adapted for a 96-well microtitre plate using a Hamilton A® workstation.

T3 sequence (P08254 100-274 limits assumed): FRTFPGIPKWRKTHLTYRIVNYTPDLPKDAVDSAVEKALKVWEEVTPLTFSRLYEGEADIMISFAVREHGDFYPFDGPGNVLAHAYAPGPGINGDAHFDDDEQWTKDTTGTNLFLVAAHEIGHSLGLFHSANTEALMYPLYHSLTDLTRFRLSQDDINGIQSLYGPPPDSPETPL
T1 sequence (P14780 107-707 limits assumed): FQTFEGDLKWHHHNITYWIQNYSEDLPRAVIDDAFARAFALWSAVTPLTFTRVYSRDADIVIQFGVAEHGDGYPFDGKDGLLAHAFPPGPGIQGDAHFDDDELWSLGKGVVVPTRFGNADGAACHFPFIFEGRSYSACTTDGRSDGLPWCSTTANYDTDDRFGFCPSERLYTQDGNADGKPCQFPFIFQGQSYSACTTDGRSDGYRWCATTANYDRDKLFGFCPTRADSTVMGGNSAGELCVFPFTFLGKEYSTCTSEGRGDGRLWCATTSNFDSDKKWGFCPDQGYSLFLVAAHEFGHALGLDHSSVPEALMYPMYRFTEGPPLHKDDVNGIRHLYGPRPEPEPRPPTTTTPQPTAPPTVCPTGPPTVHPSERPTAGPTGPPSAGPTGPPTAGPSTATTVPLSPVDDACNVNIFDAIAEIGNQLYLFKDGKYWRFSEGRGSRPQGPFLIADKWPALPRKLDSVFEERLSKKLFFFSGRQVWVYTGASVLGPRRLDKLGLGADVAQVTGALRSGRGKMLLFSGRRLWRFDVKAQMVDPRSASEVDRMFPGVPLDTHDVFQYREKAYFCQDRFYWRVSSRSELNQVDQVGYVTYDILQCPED

| Structure (SMILES) | IC50 [1] [µM] | IC50 [2] [µM] | IC50 [3] [µM] | inhibition at 5 µM [1] [%] | inhibition at 5 µM [3] [%] |
| --- | --- | --- | --- | --- | --- |
| O=C(CC(CCCc1ccccc1)C(=O)O)c1ccc(-c2ccc(Br)cc2)cc1 (stereo not drawn) [Example 134, [1,1'-Biphenyl]-4-butanoic acid, 4'-bromo-γ-oxo-α-(3-phenylpropyl)-] | 0.358 | 0.063 | 0.304 |  |  |
| O=C(O)[C@H]1[C@H](CN2C(=O)c3ccc([N+](=O)[O-])cc3C2=O)CC[C@@H]1C(=O)c1ccc(-c2ccc(Cl)cc2)cc1 (relative stereo) [Example 386, Cyclopentanecarboxylic acid, 2-[(4'-chloro[1,1'-biphenyl]-4-yl)carbonyl]-5-[(1,3-dihydro-5-nitro-1,3-dioxo-2H-isoindol-2-yl)methyl]-, (1α,2β,5β)-] | 0.00097 | 0.0117 | 0.00834 |  |  |
| CCCCNC(=O)c1ccc(CCC(CC(=O)c2ccc(-c3ccc(Cl)cc3)cc2)C(=O)O)cc1 (stereo not drawn) [Example 152, [1,1'-Biphenyl]-4-butanoic acid, α-[2-[4-[(butylamion)carbonyl]phenyl]ethyl]-4'-chloro-γ-oxo-] | 0.597 | 0.21 | 0.367 |  |  |
| CCCCCSc1ccc(-c2ccc(C(=O)CC(CCCc3ccccc3)C(=O)O)cc2)cc1 (stereo not drawn) [Example 72, [1,1'-Biphenyl]-4-butanoic acid, γ-oxo-4'-(pentylthio)-α-(3-phenylpropyl)-] |  | 0.09 | 0.409 | 22 |  |
| O=C(O)[C@H]1[C@H](C(=O)c2ccc(-c3ccc(Cl)cc3)cc2)[C@H]2C=C[C@@H]1C2 (relative stereo) [Example 176, Bicyclo[2.2.1]hept-5-ene-2-carboxylic acid, 3-[(4'-chloro[1,1'-biphenyl]-4-yl)carbonyl]-, (2-endo-,3-exo)-] |  | 2 |  | 24 | 26 |
| Cc1ccc2c(c1)C(=O)N(CCC(CC(=O)c1ccc(-c3ccc(Cl)cc3)cc1)C(=O)O)C2=O (stereo not drawn) [Example 416, 2H-Isoindole-2-butanoic acid, α[2-(4'-chloro[1,1'-biphenyl]-4-yl)-2-oxoethyl]-1,3-dihydro-5-methyl-1,3-dioxo-] | 0.0025 | 0.023 | 0.0095 |  |  |
| CCOc1ccc(-c2ccc(C(=O)CC(CCN3C(=O)c4ccccc4C3=O)C(=O)O)cc2)cc1 (stereo not drawn) [Example 273, 2H-Isoindole-2-butanoic acid, α-[2-(4'-ethoxy[1,1'-biphenyl]-4-yl)-2-oxoethyl]-1,3-dihydro-1,3-dioxo-] | 0.00125 | 0.00227 | 0.021 |  |  |
| CC(=O)Nc1ccc(-c2ccc(C(=O)CC(CCc3ccccc3)C(=O)O)cc2)cc1 (stereo not drawn) [Example 139, [1,1'-Biphenyl]-4-butanoic acid, 4'-(acetylamino)-γ-oxo-α-(2-phenylethyl)-] | 5 | 0.323 | 5 |  |  |
| CCCCCOc1ccc(-c2ccc(C(=O)[C@@H]3CC[C@H](Cc4ccccc4)[C@H]3C(=O)O)cc2)cc1 [Example 325, Cyclopentanecarboxylic acid, 2-[[4'-(pentyloxy)[1,1'-biphenyl]-4-yl]carbonyl]-5-(phenylmethyl)-, [1R-(1α,2β,5β)]-] |  | 4.4 |  | 0 | 10 |
| O=C(CC(CCN1C(=O)c2ccncc2C1=O)C(=O)O)c1ccc(-c2ccc(Cl)cc2)cc1 (stereo not drawn) [Example 417, 2H-Pyrrolo[3,4-c]pyridine-2-butanoic acid, α-[2-(4'-chloro[1,1'-biphenyl]-4-yl)-2-oxoethyl]-1,3-dihydro-1,3-dioxo-] | 0.012 | 0.0037 | 0.032 |  |  |
| COc1ccc(C(=O)OC[C@@H]2CC[C@H](C(=O)c3ccc(-c4ccc(Cl)cc4)cc3)[C@H]2C(=O)O)cc1 (relative stereo) [Example 383, Benzoic acid, 4-methoxy-, [2-carboxy-3-[(4'-chloro[1,1'-biphenyl]-4-yl)carbonyl]cyclopentyl]methyl ester, (1α,2β,3α)-] | 0.053 | 0.11 | 0.058 |  |  |
| CCCCCOc1ccc(-c2ccc(C(=O)CC(CCCc3ccccc3)C(=O)O)cc2)cn1 (stereo not drawn) [Example 71, Benzenepentanoic acid, α-[2-oxo-2-[4-[6-(pentyloxy)-3-pyridinyl]phenyl]ethyl]-] |  | 0.969 | 1.16 | 24 |  |
| O=C(CC(CCCc1ccccc1)C(=O)O)c1ccc(-c2ccc(OCc3cccnc3)cc2)cc1 (stereo not drawn) [Example 109, [1,1'-Biphenyl]-4-butanoic acid, γ-oxo-α-(3-phenylpropyl)-4'-(3-pyridinylmethoxy)-] | 1.29 | 0.0066 | 0.028 |  |  |
| O=C(CC(CCNC(=O)c1ccccc1C(=O)O)C(=O)O)c1ccc(-c2ccc(Cl)cc2)cc1 (stereo not drawn) [Example 279, [1,1'-Biphenyl]-4-butanoic acid, α-[2-[(2-carboxybenzoyl)amino]ethyl]-4'-chloro-γ-oxo-] | 0.286 | 0.067 | 0.402 |  |  |
| O=C(O)[C@H]1[C@H](COc2ccc(Cl)cc2)CC[C@@H]1C(=O)c1ccc(-c2ccc(Cl)cc2)cc1 (relative stereo) [Example 388, Cyclopentanecarboxylic acid, 2-[(4'-chloro[1,1'-biphenyl]-4-yl)carbonyl]-5-[(4-chlorophenoxy)methyl]-, (1α,2β,5β)-] | 0.467 | 0.03 | 0.105 |  |  |
| O=C(O)c1ccc(CCC(CC(=O)c2ccc(-c3ccc(Cl)cc3)cc2)C(=O)O)cc1 (stereo not drawn) [Example 153, [1,1'-Biphenyl]-4-butanoic acid, α-[2-(4-carboxyphenyl)ethyl]-4'-chloro-γ-oxo-] | 1.01 | 0.127 | 0.594 |  |  |
| CCN(CC)C(=O)c1cccc(CCC(CC(=O)c2ccc(-c3ccc(Cl)cc3)cc2)C(=O)O)c1 (stereo not drawn) [Example 144, 4-[4-(4-chlorophenyl)phenyl]-4-oxo-2-[2-(3-N,N-diethylcarbamoyl)phenyl]butanoic acid] | 0.029 | 0.0034 | 0.015 |  |  |
| O=C(CC(CCN1C(=O)c2ccccc2C1=O)C(=O)O)c1ccc(-c2ccc(Br)cc2)cc1 (stereo not drawn) [Example 270] | 0.0016 | 0.0014 | 0.006 |  |  |
| O=C(CC(CCNC(=O)c1ccccc1C(=O)O)C(=O)O)c1ccc(-c2ccc(Cl)cc2)cc1 (single isomer, unassigned) [Example 280, [1,1'-Biphenyl]-4-butanoic acid, α-[2-[(2-carboxybenzoyl)amino]ethyl]-4'-chloro-γ-oxo-] | 0.066 | 0.029 | 0.146 |  |  |
| O=C(CC(CCCCN1C(=O)c2ccccc2C1=O)C(=O)O)c1ccc(-c2ccc(Cl)cc2)cc1 (stereo not drawn) [Example 431, 2H-Isoindole-2-hexanoic acid, α[2-(4'-chloro[1,1'-biphenyl]-4-yl)-2-oxoethyl]-1,3-dihydro-1,3-dioxo-] | 0.05 | 0.016 | 0.038 |  |  |
| O=C(O)[C@H]1CN(C(=O)OCc2ccccc2)C[C@@H]1C(=O)c1ccc(-c2ccc(Cl)cc2)cc1 (relative stereo) [Example 174, 1,3-Pyrrolidinecarboxylic acid, 4-[(4'-chloro[1,1'-biphenyl]-4-yl)carbonyl]-1,-(phenylmethyl) ester, trans-] | 0.522 | 0.056 | 0.144 |  |  |
| O=C(CC(CC[S+]([O-])c1ccccc1)C(=O)O)c1ccc(-c2ccc(Cl)cc2)cc1 (stereo not drawn) [Example 428, [1,1'-Biphenyl]-4-butanoic acid, 4'-chloro-γ-oxo-α-[2-(phenylsulfinyl)ethyl]-] | 0.119 | 0.016 | 0.053 |  |  |
| O=C(c1ccc(-c2ccc(Cl)cc2)cc1)[C@H]1CCN(C(=O)Nc2ccccc2)[C@@H]1C(=O)O [Example 173, L-Proline, 3-[(4'-chloro[1,1'-biphenyl]-4-yl)carbonyl]-1-[(phenylamino)carbonyl]-, trans-] | 0.814 | 0.104 | 0.119 |  |  |
| COCCCc1ccc(-c2ccc(C(=O)CC(CCCc3ccccc3)C(=O)O)cc2)cc1 (stereo not drawn) [Example 355, [1,1'-Biphenyl]-4-butanoic acid, 4'-(3-methoxypropyl)-γ-oxo-α-(3-phenylpropyl)-] | 1.08 | 0.09 | 0.508 |  |  |
| O=C(CC(CCN1C(=O)c2cc(Cl)c(Cl)cc2C1=O)C(=O)O)c1ccc(-c2ccc(Cl)cc2)cc1 (stereo not drawn) [Example 415, 2H-Isoindole-2-butanoic acid, 5,6-dichloro-α-[2-(4'-chloro[1,1'-biphenyl]-4-yl)-2-oxoethyl]-1,3-dihydro-1,3-dioxo-] | 0.0012 | 0.034 | 0.012 |  |  |
| COC(=O)c1ccccc1C(=O)OC[C@@H]1CC[C@H](C(=O)c2ccc(-c3ccc(Cl)cc3)cc2)[C@H]1C(=O)O (relative stereo) [Example 368] | 0.03 | 0.031 | 0.036 |  |  |
| CCCCC#Cc1ccc(-c2ccc(C(=O)CC(CCCc3ccccc3)C(=O)O)cc2)cc1 (stereo not drawn) [Example 352, [1,1'-Biphenyl]-4-butanoic acid, 4'-(1-hexynyl)-γ-oxo-α-(3-phenylpropyl)-] | 0.905 | 0.061 | 0.13 |  |  |

Reference: patent US5789434A, “Derivatives of substituted 4-biarylbutyric acid as matrix metalloprotease inhibitors” (priority 1995, dated 1998)
